Measurements from article PMC3731216, “Origin and Functional Diversification of an Amphibian Defense Peptide Arsenal” (PLoS Genetics, 2013).
In brackets after ≈: the same amount, converted by molar mass. Where a SMILES comes first, the peptide text is derived from it.

Key:
[1] = system: T-lymphocytes (naive C57Black/6 splenocytes); test: Inhibition of Concanavalin A-induced T-cell proliferation in spleen cell cultures; format: cell-based, Mus musculus; details: lowest concentration causing at least 50% inhibition of Concanavalin A-induced T-cell proliferation; 2×10^5 splenocytes, 24 h + 18 h [3H]thymidine, 37°C; min–max if variable
Description: (§1) Seventeen predicted and recovered peptides were de novo synthesized using solid-phase technology by CASLO Laboratory ApS (Lyngby, Denmark) and delivered as HPLC-purified (>95%) trifluoracetate (TFA) salts. The peptide salts were stored as 5.12 mM stock solutions in 0.01% (V/V) acetic acid/0.2% (m/V) BSA. Peptides were tested against Escherichia coli (ATCC 25922) and Pseudomonas aeruginosa (ATCC 15692), Staphylococcus aureus (ATCC 25923), Micrococcus luteus, Saccharomyces cerevisiae, a protozoan parasite (Trypanosoma brucei brucei), mouse (Mus musculus) red blood cells and mouse spleen tissue cultures (containing 50–60% B-cells, ∼25–30% T-cells, and 5% myeloid cells). All assays were performed in duplicate or triplicate.
Activity against T-lymphocytes was assessed as the lowest peptide concentration in a series of twofold dilutions causing at least 50% inhibition of Concanavalin A-induced T-cell proliferation (IC50). Solutions containin 2×10^5 naive C57Black/6 splenocytes in the presence of 2.5 µg Concanavalin A were added to polypropylene 96-well plates containing the serial peptide dilutions to obtain total volumes of 100 µl. After incubation for 24 hours at 37°C in a humidified atmosphere, the cells were pulsed with [^3H]thymidine and incubated for an additional 18 hours. The amount of [^3H]thymidine incorporation was assessed by a β-counter as a measure of cell proliferation and the percentage of proliferation inhibition for each peptide concentration was calculated as 100×(1−(Tobs/T100%)), where Tobs is the [^3H]thymidine level measured for the peptide concentration, and T100% is the [^3H]thymidine level measured for Concanavalin-A-induced cell proliferation in the absence of peptide (representing 100% proliferation).

Saccharomyces cerevisiae = test: MIC assay in liquid medium (twofold dilutions) against S. cerevisiae; format: cell-based; details: lowest concentration in twofold dilutions with no growth; 5×10^5 CFU/ml, Luria-Bertani broth, 30°C, 18 hours, read by eye; duplicate or triplicate, min–max if variable
Description: as §1
(§2) Activity against the bacteria and fungus was measured by assessing the lowest peptide concentration in a series of twofold dilutions at which no growth was detected (known as the minimum inhibitory concentration, MIC). Bacterial and yeast cultures (5×10^5 colony forming units/ml) were prepared in Müller-Hinton (MH) broth and Luria-Bertani (LB) broth respectively and transferred to serial dilutions of peptides ranging from 512 or 256 µM down to 1 or 0.5 µM in 96-well polypropylene plates. After incubation at 37°C (bacteria) or 30°C (S. cerevisiae) for 18 hours, growth of the cultures was checked by eye. In addition to MIC, we determined minimum microbicidal concentrations (MMC) by inoculating samples of the MIC assays on agar plates lacking peptides and checking for overnight growth. In all cases, MIC and MMC were identical.

[2] = system: Pseudomonas aeruginosa (ATCC 15692); test: MIC assay in liquid medium (twofold dilutions) against P. aeruginosa; format: cell-based; details: lowest concentration in twofold dilutions with no growth; 5×10^5 CFU/ml, Müller-Hinton broth, 37°C, 18 hours, read by eye; duplicate or triplicate, min–max if variable
Description: as §1, §2

[3] = system: Trypanosoma brucei brucei AnTat1.1 bloodstream parasites; test: Trypanolytic activity (LC95, 30 minutes); format: cell-based; details: lowest concentration killing at least 95% of parasites after 30 minutes; PSG buffer with 5% FCS, light microscope count; min–max of repeated tests
Description: as §1
Activity against T. brucei parasites was assessed as the minimum concentration in a series of twofold dilutions required to kill 95% of parasites in 30 minutes (LC95). Frozen stabilates of Trypanosoma brucei brucei AnTat1.1 bloodstream parasites were expanded by infection of C57Black/6 mice (Janvier). Mice with systemic parasitaemia (typically 4–5 days post infection) were exsanguinated and parasites were purified from heparinized blood by DEAE-cellulose (DE52, Whatman) chromatography. Collected parasites were washed twice with Phosphate-Saline-Glucose buffer (PSG-buffer) and enumerated microscopically using a Bürker hematocytometer. The DEAE52-purified parasites (stock: 10^6 parasites/ml PSG buffer containing 5% FCS) were added to polypropylene 96-well plates containing the serial peptide dilutions to obtain total volumes of 200 µl. After incubation for 30 minutes, trypanolytic activity was assessed using a light microscope by calculating the percentage of dead parasites in a minimum of 200 counted cells.

mouse red blood cells = test: Hemolysis of mouse red blood cells (HC50); format: cell-based; details: lowest concentration causing at least 50% hemolysis; mouse blood diluted 1/100 in RPMI, 37°C, 30 minutes, OD 550 nm; 100% = 1% Tween-20
Description: as §1
Activity against mouse red blood cells was examined by assessing the lowest peptide concentration in a series of twofold dilutions causing at least 50% hemolysis (HC50). Briefly, heparinized blood was obtained by cardiac puncture of mice euthanized via CO2. The blood was diluted 1/100 in RPMI and added to polypropylene 96-well plates containing the serial peptide dilutions to obtain total volumes of 100 µl. The plates were incubated at 37°C in a humidified atmosphere for 30 minutes and centrifuged at 1400 rpm for 2 minutes to pellet intact red blood cells allowing visual observation of hemolysis. Supernatants were subsequently transferred to 96-well flat-bottom plates to allow spectrophotometry using an ELISA reader (OD measured at 550 nm). The percentage of hemolyis for each peptide concentration was calculated as 100×(ODobs−OD0%)/(OD100%−OD0%), where ODobs is the OD measured for the peptide concentration, OD0% is the average OD in the absence of peptides (0% hemolysis), and OD100% is the average OD in the presence of 1% Tween-20 (100% hemolysis).

[4] = system: Escherichia coli (ATCC 25922); test: MIC assay in liquid medium (twofold dilutions) against E. coli; format: cell-based; details: lowest concentration in twofold dilutions with no growth; 5×10^5 CFU/ml, Müller-Hinton broth, 37°C, 18 hours, read by eye; duplicate or triplicate, min–max if variable
Description: as §1, §2

[5] = Hydrophobicity as % TFA/AcN solvent at HPLC elution time; format: physicochemical; details: chromatographic; expressed as % TFA/AcN solvent at HPLC elution time
[6] = system: Staphylococcus aureus (ATCC 25923); test: MIC assay in liquid medium (twofold dilutions) against S. aureus; format: cell-based; details: lowest concentration in twofold dilutions with no growth; 5×10^5 CFU/ml, Müller-Hinton broth, 37°C, 18 hours, read by eye; duplicate or triplicate, min–max if variable
Description: as §1, §2

Micrococcus luteus = test: MIC assay in liquid medium (twofold dilutions) against M. luteus; format: cell-based; details: lowest concentration in twofold dilutions with no growth; 5×10^5 CFU/ml, Müller-Hinton broth, 37°C, 18 hours, read by eye; duplicate or triplicate, min–max if variable
Description: as §1, §2

Molecule | IC50 [1] | MIC S. cerevisiae (Saccharomyces cerevisiae) | MIC P. aeruginosa [2] | LC95 T. brucei [3] | HC50 Erythrocytes (mouse red blood cells) | MIC E. coli [4] | Hydrophobicity [5] | MIC S. aureus [6] | MIC M. luteus (Micrococcus luteus)
CC(C)C[C@H](NC(=O)[C@H](CC(C)C)NC(=O)[C@H](CC(N)=O)NC(=O)[C@H](CO)NC(=O)CNC(=O)[C@@H](NC(=O)[C@H](CCCCN)NC(=O)[C@H](CC(C)C)NC(=O)CNC(=O)[C@@H](NC(=O)[C@H](CCCCN)NC(=O)[C@H](CC(C)C)NC(=O)[C@H](CC(C)C)NC(=O)[C@H](CO)NC(=O)CNC(=O)[C@H](CC(C)C)NC(=O)[C@H](CC(C)C)NC(=O)[C@@H](N)CC(N)=O)[C@@H](C)O)C(C)C)C(N)=O [CPF-St7] (H-NLLGSLLKTGLKVGSNLL-NH2; N-terminus assumed) | 128 µM | 64 µM (≈ 118 µg/mL) | >256 µM | 2 to 64 µM | 256 µM | 128 µM (≈ 235 µg/mL) | 45,2 % TFA/AcN solvent | 32 µM (≈ 58.9 µg/mL) | 2 µM (≈ 3.68 µg/mL)
CC[C@H](C)[C@H](NC(=O)[C@H](C)NC(=O)[C@H](CCCCN)NC(=O)[C@H](C)NC(=O)[C@H](C)NC(=O)[C@H](CCCCN)NC(=O)CNC(=O)[C@H](Cc1ccccc1)NC(=O)[C@H](C)NC(=O)[C@@H](NC(=O)CNC(=O)[C@H](C)NC(=O)[C@H](CCCCN)NC(=O)[C@@H](NC(=O)[C@H](C)NC(=O)[C@H](CCSC)NC(=O)CN)[C@@H](C)O)[C@@H](C)O)C(=O)N[C@H](C(=O)NCC(=O)N[C@@H](C)C(=O)N[C@@H](C)C(=O)N[C@@H](CC(C)C)C(N)=O)[C@@H](C)CC [PGLa-St2] (H-GMATKAGTAFGKAAKAIIGAAL-NH2; N-terminus assumed) | 64 µM | 64 µM (≈ 129 µg/mL) | 128 µM (≈ 258 µg/mL) | 16 to 32 µM | >256 µM | 16 µM (≈ 32.3 µg/mL) | 42,6 % TFA/AcN solvent | >256 µM | 2 µM (≈ 4.04 µg/mL)
CC(C)C[C@H](NC(=O)CNC(=O)[C@H](C)NC(=O)[C@@H](NC(=O)[C@H](CC(N)=O)NC(=O)[C@H](CO)NC(=O)[C@H](CC(C)C)NC(=O)[C@H](CC(C)C)NC(=O)CN)C(C)C)C(=O)N[C@@H](CC(C)C)C(=O)N[C@@H](CCCCN)C(=O)N[C@@H](CCC(N)=O)C(=O)N[C@@H](Cc1ccccc1)C(=O)N[C@@H](C)C(=O)N[C@@H](CCCCN)C(=O)NCC(=O)NCC(=O)N[C@H](C(=O)N[C@@H](CC(N)=O)C(=O)N[C@@H](C)C(=O)N[C@H](C(=O)N[C@@H](CC(C)C)C(=O)N[C@@H](CC(N)=O)C(=O)N1CCC[C@H]1C(=O)N[C@@H](CCCCN)C(=O)O)C(C)C)C(C)C [XPF-St7] (H-GLLSNVAGLLKQFAKGGVNAVLNPK-OH) | 16 µM | 32 µM (≈ 80.3 µg/mL) | 32 µM (≈ 80.3 µg/mL) |  | >256 µM | 8 µM (≈ 20.1 µg/mL) |  | 128 µM (≈ 321 µg/mL) | 1 µM (≈ 2.51 µg/mL)
CC[C@H](C)[C@H](NC(=O)[C@H](C)NC(=O)[C@H](CC(N)=O)NC(=O)[C@@H](NC(=O)CNC(=O)CNC(=O)[C@H](CCCCN)NC(=O)[C@H](C)NC(=O)[C@H](Cc1ccccc1)NC(=O)[C@H](CCCCN)NC(=O)[C@H](CCCCN)NC(=O)[C@H](C)NC(=O)[C@H](Cc1ccccc1)NC(=O)[C@H](CC(N)=O)NC(=O)[C@H](C)NC(=O)[C@@H](NC(=O)[C@H](CCCCN)NC(=O)[C@H](CO)NC(=O)[C@H](CCSC)NC(=O)[C@H](Cc1ccccc1)NC(=O)CN)C(C)C)C(C)C)C(=O)N[C@@H](CCSC)C(=O)N[C@@H](CC(N)=O)C(=O)N[C@@H](CCC(N)=O)C(=O)N[C@@H](CCCCN)C(=O)O [XPF-St8] (H-GFMSKVANFAKKFAKGGVNAIMNQK-OH) | 16 µM | 8 µM (≈ 21.5 µg/mL) | 4 µM (≈ 10.7 µg/mL) |  | 64 µM | 1 µM (≈ 2.69 µg/mL) |  | 128 µM (≈ 344 µg/mL) | 0,5 µM
CC[C@H](C)[C@H](NC(=O)[C@H](Cc1ccccc1)NC(=O)CNC(=O)[C@H](CCCCN)NC(=O)[C@H](C)NC(=O)[C@H](Cc1ccccc1)NC(=O)[C@H](CCCCN)NC(=O)[C@H](CCCCN)NC(=O)[C@H](C)NC(=O)[C@H](CO)NC(=O)[C@H](Cc1c[nH]cn1)NC(=O)[C@H](C)NC(=O)[C@@H](NC(=O)[C@H](CCC(=O)O)NC(=O)[C@H](CCCCN)NC(=O)[C@H](CC(C)C)NC(=O)CN)C(C)C)C(=O)N[C@@H](CO)C(=O)NCC(=O)N[C@@H](CC(C)C)C(=O)N[C@H](C(=O)NCC(=O)N[C@@H](CO)C(=O)O)[C@@H](C)O [magainin-St1] (H-GLKEVAHSAKKFAKGFISGLTGS-OH) | > 256 µM | 128 µM (≈ 299 µg/mL) | >256 µM |  | >256 µM | 64 µM (≈ 149 µg/mL) |  | >256 µM | 32 µM (≈ 74.7 µg/mL)
FIGALLGPLLNLLKa [PFQa-St1, homologue of pFQa encoded by xpf-St7] |  |  |  |  |  |  | 55,4 % TFA/AcN solvent |  | 
GMATKAGTVLGKVTKAIIGAALa [PGLa-St3, predicted S. tropicalis skin peptide encoded by pgla-St3] |  |  |  |  |  |  | 39,2 % TFA/AcN solvent |  | 
KLGFENFLVKALKTVMHVPTSPLLa [CPF-St6, predicted S. tropicalis skin peptide encoded by cpf-St6] | 32 to 64 µM | 64 µM | >256 µM | 16 to 256 µM | 256 µM | 16 µM | 35,5 % TFA/AcN solvent | >256 µM | 4 µM
pQGLIGTLTAKQIKKa [levitide-St2, levitide-related peptide encoded by xpf-St5] |  |  |  |  |  |  | 35,0 % TFA/AcN solvent |  | 
pQGLMGTLISKQMKKa [levitide-St1, levitide-related peptide encoded by xpf-St4] |  |  |  |  |  |  | 31,6 % TFA/AcN solvent |  | 
